{
  "source": "patent US20260355168A1",
  "about": "“COMPOSITIONS AND METHODS FOR TREATING AND DETECTING CANCER” (CASE WESTERN RESERVE UNIVERSITY, priority 2022, published 2026)",
  "key": {"PTPμ": {"biological_target": "PTPμ (Homo sapiens, UniProt P28827)", "sequence (P28827 21-1452)": "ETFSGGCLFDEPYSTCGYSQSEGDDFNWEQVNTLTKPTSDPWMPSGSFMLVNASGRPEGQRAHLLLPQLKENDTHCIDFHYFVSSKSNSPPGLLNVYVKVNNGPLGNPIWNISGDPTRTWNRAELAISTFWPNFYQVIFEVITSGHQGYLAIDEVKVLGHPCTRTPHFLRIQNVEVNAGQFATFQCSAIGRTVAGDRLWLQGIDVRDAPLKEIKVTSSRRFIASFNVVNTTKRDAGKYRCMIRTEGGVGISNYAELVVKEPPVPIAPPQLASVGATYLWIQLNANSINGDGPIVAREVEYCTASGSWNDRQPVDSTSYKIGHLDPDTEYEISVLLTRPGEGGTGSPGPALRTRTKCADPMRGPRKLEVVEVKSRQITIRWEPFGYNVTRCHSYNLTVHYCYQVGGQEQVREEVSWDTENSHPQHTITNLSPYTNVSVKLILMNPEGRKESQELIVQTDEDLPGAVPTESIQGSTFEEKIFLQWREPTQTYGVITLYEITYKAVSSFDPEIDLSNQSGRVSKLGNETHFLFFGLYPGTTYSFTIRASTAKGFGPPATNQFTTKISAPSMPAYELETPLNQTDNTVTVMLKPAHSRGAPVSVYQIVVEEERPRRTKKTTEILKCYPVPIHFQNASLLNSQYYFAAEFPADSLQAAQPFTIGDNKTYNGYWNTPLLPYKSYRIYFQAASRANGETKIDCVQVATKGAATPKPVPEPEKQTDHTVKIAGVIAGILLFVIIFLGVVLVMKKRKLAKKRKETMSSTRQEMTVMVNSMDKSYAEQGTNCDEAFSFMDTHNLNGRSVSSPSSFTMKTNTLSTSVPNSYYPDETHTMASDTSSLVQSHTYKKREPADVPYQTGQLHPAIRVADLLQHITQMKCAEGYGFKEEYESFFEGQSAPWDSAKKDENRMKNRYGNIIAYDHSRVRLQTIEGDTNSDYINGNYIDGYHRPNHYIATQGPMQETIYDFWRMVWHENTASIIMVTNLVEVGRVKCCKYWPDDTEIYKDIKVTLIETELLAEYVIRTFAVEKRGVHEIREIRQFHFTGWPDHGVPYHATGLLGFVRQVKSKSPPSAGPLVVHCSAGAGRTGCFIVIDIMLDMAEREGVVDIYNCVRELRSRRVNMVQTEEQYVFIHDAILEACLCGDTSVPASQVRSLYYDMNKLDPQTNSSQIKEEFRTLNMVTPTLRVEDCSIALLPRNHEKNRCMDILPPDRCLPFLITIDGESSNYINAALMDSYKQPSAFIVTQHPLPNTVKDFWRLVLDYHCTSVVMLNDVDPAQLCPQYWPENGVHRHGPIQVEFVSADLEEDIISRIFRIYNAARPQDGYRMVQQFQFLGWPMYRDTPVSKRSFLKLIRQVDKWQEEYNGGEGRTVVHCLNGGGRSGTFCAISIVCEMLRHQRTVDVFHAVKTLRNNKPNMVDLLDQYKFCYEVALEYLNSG", "assay": "PTPμ-dependent Sf9 aggregation assay", "format": "cell-based", "details": "100 μM; 20 min pretreatment; in words"}, "U87 cells": {"test_system": "U87 cells", "assay": "U87 scratch wound healing assay", "format": "cell-based, human", "details": "100 μM; in words", "excerpt": "FIGS. 11(A-D) illustrate a histogram and images of the results of the U87 scratch wound assays. A. Histogram showing the effects of all soluble wedge pocket-targeting compounds on U87 scratch wound closure. Cell movement into the scratches was quantified from scratch wound widths at the start and end of the assay and normalized to the average movement of cells in the unblinded DMSO control samples. Data is presented as average percentages±s.e.m., and compound bar codes are shown on the x-axis. Most compounds were screened with an n of 2-4. Representative images of scratch wounds treated with DMSO (A) or two priority inhibitors (C and D) are shown.\n(§1) Cells were seeded at a density of 2.7×10^4 cells per well into the internal wells of Incuyte1 Imagelock 96-well plates (Essen BioScience Inc., Ann Arbor, MI) and cultured overnight to form monolayers. Monolayers were wounded with an IncuCyte1 96-well Woundmaker Tool per the manufacturer's instructions. The outer wells were filled with PBS to buffer edge effects, and then the wounded monolayers were cultured in 100 μl of fresh media with compounds or DMSO (2×replicates at 100 μM or 1%, respectively) at 37 °C and 5% CO2. Images were captured every 4 hrs. using an Incucyte live cell imaging system equipped with the Scratch Wound Module. Scratch wound widths were calculated, per the manufacturer's instructions, at TO and at endpoint (typically T12 for LN229 and U87 cells and T8 for Gli36), which was taken as the last timepoint before wound closure. The cell migration distance was calculated from scratch widths [(T0Width−TendpointWidth)/2] and normalized to the average distance migrated by the DMSO controls. Values are presented as average percentages±standard errors of the means (s.e.m.). The majority of compounds were screened with an n of two, but the n for priority hits ranges from 2-6."}, "Gli36 cells": {"test_system": "Gli36 cells", "assay": "Gli36 glioma sphere formation and growth assay", "format": "cell-based, human", "procedure": "FIGS. 6(A-E) illustrate a histogram and images showing the results of the Gli36 sphere formation and growth assays. Selected inhibitors, activators, and control compounds identified in LN229 and/or U87 scratch wound closure assays were retested at 100 μM in a secondary assay for glioma cell (Gli36) sphere formation and growth. A. Histogram showing the effects of the indicated compounds on Day 1 sphere footprint areas. Footprint areas were measured and normalized to the average footprint area of the unblinded DMSO-treated controls. On day 1, a larger footprint area indicates inhibition of aggregation. B. Histogram showing the effects of the indicated compounds on sphere growth. Changes in sphere footprint areas were calculated and normalized to the average size change of the unblinded vehicle-treated controls. On day 7, a smaller value indicates reduced growth. […] Data is presented as percentages±s.e.m. of 2-4 replicates. Representative images of samples treated with DMSO (C) and two priority inhibitors (D and E) are shown. Relative day 1 footprint areas and day 7 growth measurements are indicated for each example.\n(§2) Cells were seeded at a density of 7500 cells per well into the internal wells of 96-well plates coated with 0.75% (wt/vol) PVA as previously described. Compounds were added (2×replicates per treatment) at the indicated final concentrations, and control wells were treated with matching concentrations of DMSO. The external wells of the plates were filled with PBS to buffer against edge effects, and the cells were incubated at 37 °C and 5% CO2 for 7 days. A Leica CTR6500 microscope fitted with an automated stage was used to capture brightfield images on day 1 and day 7, and sphere footprint areas were measured using Image J (v1.52a http://imagej.nih.gov/ij) as previously described. To quantify the effects of the compounds on day 1, the footprint areas of the treated wells were normalized to the average area of the matched DMSO control wells. To quantify the effects of the compounds on sphere growth, the change in the sphere footprint areas was calculated ([…]) and then normalized to the average size change of the matched DMSO samples. All values are presented as average percentages±s.e.m."}, "glioma cells": {"test_system": "glioma cells", "assay": "Glioma cell assays combined (scratch and sphere, several cell lines)", "format": "cell-based, human", "details": "100 μM; multiple assays and cell lines", "procedure": "FIG. 2 illustrates a schematic of a functional screening approach. Seventy-four PTPμ wedge-targeted compounds and 2 blinded DMSO samples were received from Atomwise and screened at 100 μM in scratch wound healing assays using two glioma cell lines (LN229 and U87). Selected active and control compounds were taken into secondary assays (Gli36 scratch and LN229 and Gli36 sphere formation and growth assays). Inhibitors selected as being active in primary and secondary screens were tested for effects on the survival of LN229 and Sf9 cells, and selected glioma-cell inhibitors and activators were screened for effects on Sf9-PTPμ aggregation, a highly specific test for PTPμ function.\nas §1, §2"}, "LN229 cells [1]": {"test_system": "LN229 cells", "assay": "LN229 glioma sphere formation and growth assay", "format": "cell-based, human", "details": "100 μM, in words", "procedure": "FIGS. 5(A-E) illustrate a histogram and images showing the results of the LN229 sphere formation and growth assays. Selected inhibitors, activators, and control compounds identified in LN229 and/or U87 scratch wound closure assays were retested at 100 μM in a secondary assay for glioma cell (LN229) sphere formation and growth. A. Histogram showing the effects of the indicated compounds on sphere formation. On day 1, sphere footprint areas were determined and normalized to the average footprint area of the unblinded vehicle-treated controls. On day 1, a larger footprint area indicates inhibition of aggregation. B. Histogram showing the effects of the indicated compounds on sphere growth. On day 7, the changes in sphere footprint areas were calculated and normalized to the average size change of the unblinded vehicle-treated controls. On day 7, a smaller value indicates reduced growth. […] Data is presented as percentages±s.e.m. of 2-4 replicates. Representative images of samples treated with DMSO (C) and two priority inhibitors (D and E) are shown. Relative day 1 footprint areas and day 7 growth measurements are indicated for each example.\nFIGS. 15(A-D) illustrate a histogram and images of titration of selected compounds on LN229 sphere formation and growth. LN229 cells were plated onto non-adherent surfaces and treated with the indicated compounds at 100, 50, and 25 μM. A. On day 1, sphere footprint areas were determined and normalized to the average footprint area of the unblinded vehicle-treated controls. On day 1, a larger foot-print area indicates inhibition of aggregation. B. On day 7, the changes in sphere footprint areas were calculated and normalized to the average size change of the unblinded vehicle-treated controls. On day 7, a smaller value indicates reduced growth. […] Data is presented as percentages±s.e.m. The initial test at 100 μM and the follow-up at that dose with titration is shown. Each bar is the average of 2 replicates. Representative day 1 (C) and day 7 (D) images of samples treated with two priority inhibitors are shown. Relative day 1 sphere footprint areas and day 7 growth for each example are indicated.\nas §2\nWe tested the effects of twenty-four compounds (11 flagged as inhibitory, 4 as stimulatory, and nine as inert in the initial scratch-wound screen, FIG. 2) on the ability of LN229 cells to mediate cell-cell adhesion and grow in 3D culture on non-adherent surfaces. To quantify sphere formation (FIG. 5A), the footprint areas of aggregates were measured on day 1 and normalized to that of the DMSO control. At this time point, a larger footprint size (>120%) indicates inhibition, i.e., the failure of cells to form a compact aggregate. To quantify sphere growth (FIG. 5B), we calculated the percent changes in sphere footprint areas between day 1 and day 7 and normalized them to that of the DMSO controls."}, "LN229 cells [2]": {"test_system": "LN229 cells", "assay": "LN229 scratch wound healing assay", "format": "cell-based, human", "excerpt": "FIGS. 3(A-D) illustrate a histogram and images of the LN229 scratch wound assays. A. Histogram showing the effects of all soluble wedge-targeted compounds on LN229 scratch wound closure. Cell movement into the scratches was quantified from scratch wound widths at the start and end of the assay and normalized to the average movement of cells in the unblinded DMSO control samples. Data is presented as average percentages±standard error of the means (s.e.m.), and compound bar codes are shown on the x-axis. The majority of compounds were screened with an n=2. Some priority compounds were screened with 3-6 replicates. Representative endpoint images of samples treated with DMSO (B) and two priority inhibitors (C and D) are shown. The relative migration distances for each example are indicated.\nas §1\nScratch assays measure the ability of cells to migrate into a wound and close it creating a monolayer."}},
  "note": "“Also recorded” adds a separate entry of the source.",
  "data": [
    {"smiles": "COc1ccc(CC(NC(=O)C2CC(NC(=O)CSC)CCN2C(=O)CCC(=O)O)C(N)=O)cc1", "note": "(stereo not shown) [Compound 247685114]", "values": [
      {"measurement": "Effect on PTPμ-dependent Sf9 aggregation / adhesion", "setting": "PTPμ", "value": "activate Sf9-PTPμ aggregation; also recorded: activate PTPμ-dependent adhesion; also recorded: considerable increase in aggregate numbers; also recorded: activator of PTPμ-dependent adhesion; also recorded: able to activate PTPμ-mediated aggregation"},
      {"measurement": "Effect on U87 cell migration (scratch wound closure)", "setting": "U87 cells", "value": "did not reach our strict cut-off for an activator; also recorded: weakly stimulatory in U87 and LN229 scratch assays"},
      {"measurement": "Effect on Gli36 sphere formation", "setting": "Gli36 cells; 100 μM, day 1, in words", "value": "affected Gli36 spheres; also recorded: accelerate Gli36 sphere condensation and growth; also recorded: weakly stimulatory in U87 and LN229 scratch assays and Gli36 sphere formation and growth assays; also recorded: stimulate Gli36 sphere formation and growth"},
      {"measurement": "Effect on Gli36 sphere growth", "setting": "Gli36 cells; 100 μM, day 7, in words", "value": "grew marginally faster than controls; also recorded: modest activator of Gli36 sphere growth; also recorded: weakly stimulatory in U87 and LN229 scratch assays and Gli36 sphere formation and growth assays; also recorded: stimulate Gli36 sphere formation and growth"},
      {"measurement": "activity at 100 µM", "setting": "Gli36 cells; Homo sapiens, GLI36, 24 h, day 1, of the control area, read-out: Average day 1 sphere footprint area, Gli36", "value": 68, "unit": "%"},
      {"measurement": "Effect on glioma cells, overall", "setting": "glioma cells", "value": "only weak, if any, activity in other glioma-cell assays"},
      {"measurement": "Effect on LN229 sphere formation", "setting": "LN229 cells [1]; day 1", "value": "did not affect LN229 sphere formation or growth"},
      {"measurement": "Effect on LN229 sphere growth", "setting": "LN229 cells [1]; day 7", "value": "did not affect LN229 sphere formation or growth"},
      {"measurement": "Effect on LN229 scratch wound closure / migration", "setting": "LN229 cells [2]; 100 μM, in words", "value": "moderately stimulated LN229; also recorded: weakly stimulatory in U87 and LN229 scratch assays"},
      {"measurement": "activity at 100 µM", "setting": "LN229 cells [2]; Homo sapiens, LN-229, normalized to DMSO controls, read-out: LN229 scratch wound closure relative to DMSO controls", "value": "~120", "unit": "%"}
    ]}
  ]
}
